According to patent US10604489B2, “Compounds for the treatment of pain” (priority 2018, dated 2020):
pEC50, pKi: −log10 of the molar value. Structures can show the parent of a compound that is named as a salt.

Legend:
[1] = biological target: T1, human μ opioid receptor (Homo sapiens (Human), UniProt P35372); assay: Alternate functional activity ([35S]GTPγS binding) assay, SPA beads; assay type: biochemical; conditions: alternate assay: [35S]GTPγS 0.020 nM, CHO cell membranes with WGA PVT SPA beads
Description: The [^35S]GTPγS assay measures the functional properties of a compound by quantifying the level of G-protein activation following agonist binding in studies using stably transfected cells, and is considered to be a measure of the efficacy of a compound. Membranes from CHO (Chinese Hamster Ovary) cells that stably expressed one type of the cloned human opioid receptor human were used in the experiments. The assay buffer consisted of 50 mM Tris-HCl, pH 7.4, 3 mM MgCl2, 0.2 mM EGTA, 5 μM GDP, and 100 mM NaCl. CHO cell membranes stably expressing the human p opioid receptor were pre-incubated with scintillation proximity assay beads from PerkinElmer® (WGA PVT SPA) for 30 minutes, at 8 µg membrane and […] beads in a volume of 0.1 mL per reaction. In a final volume of 0.2 mL, 11 different concentrations of each test compound were incubated with the membrane-SPA bead mixture and a final concentration of 0.020 nM [35S]GTPγS for 1.5 hours with gentle shaking. Reactions were then incubated for 5 hours. Data are the mean EC50 values ±S.E.M. EC50 values (nM) for compounds 12, 16, 19, 20, 149, 151, 152, 157, 160, 161, 164-169, 172, 173, 180-197, and 199-207 are shown in Table 1.

[2] = biological target: T2, μ-receptor (Homo sapiens (Human), UniProt P35372); assay: Alternate receptor binding assay, competitive displacement of [3H]DAMGO; conditions: alternate assay: 0.8 nM [3H]DAMGO, 5 mM MgCl2, CHO cell membrane protein, 120 min
[3] = biological target: T2, μ-receptor; assay: Receptor binding, competitive displacement of [3H]DAMGO; conditions: 0.25 nM [3H]DAMGO, CHO cell membrane protein, 60 min at 25° C.
Procedure, shortened: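 Ki derived via Cheng-Prusoff from IC50 (log-probit fit) of displacement of 0.25 nM [3H]DAMGO, 12 concentrations, from human μ-receptor in CHO cell membranes. Binding: 50 mM Tris-HCl pH 7.5, 25 °C, 60 min, 10 μM naloxone defining nonspecific, filter-bound radioactivity counted.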

[4] = system: Male Sprague-Dawley rats; conditions: maximum pCO2 within 2 hours of administration, subcutaneous, rat; for <60 mmHg @ 10X CFA MEMD: dose 10× CFA MEMD; for <60 mmHg @ 100X CFA MEMD: dose 100× CFA MEMD
[5] = system: Male Sprague-Dawley rats; assay: animal or person; assay type: in vivo, rat; conditions: sc; minimum dose at which maximal reversal of hind paw weight bearing (50±0.5%) was achieved; subcutaneous administration; rat; read-out: MEMD SC CFA
[6] = biological target: T1, human μ opioid receptor; assay: Functional activity ([35S]GTPγS binding); assay type: biochemical; conditions: [35S]GTPγS 0.080 nM, CHO cell membranes, 60 min at 30° C., filtration
Procedure, shortened: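 Membranes from stably transfected CHO cells (7.5 μg) incubated with 12 test-compound concentrations and 0.080 nM [35S]GTPγS in 50 mM Tris-HCl pH 7.4, 3 mM MgCl2, 0.2 mM EGTA, 3 μM GDP, 100 mM NaCl, 60 min at 30° C. Nonspecific binding defined with 10 μM GTPγS; bound label collected by filtration and scintillation counting.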

| Compound | pEC50 [1] | pKi [2] | further results |
| --- | --- | --- | --- |
| COC1(c2cccc(C(N)=O)c2)C2CCCC1CN(C1CC3CCC(C1)O3)C2 (single isomer, unassigned) [Compound 16, hydrochloride] | > 8.00 | > 9.00 |  |
| COC1(c2ccnc(C(N)=O)c2)C2CCCC1CN(C1CC3CCC(C1)O3)C2 [Compound 12, 4-((1R,5S,9R)-3-((1R,3s,5S)-8-oxabicyclo[3.2.1]octan-3-yl)-9-methoxy-3-azabicyclo[3.3.1]nonan-9-yl)picolinamide hydrochloride] | 7.12 to 8.00 |  | pKi ([2]; hydrochloride): > 9.00 |
| COC1(c2cccc(C(N)=O)c2)C2CCCC1CN([C@@H](C)c1cnc[nH]1)C2 (stereo partly drawn) [Compound 19, 3-((1R,5S,9S)-3-((S)-1-(1H-imidazol-5-yl)ethyl)-9-methoxy-3-azabicyclo[3.3.1]nonan-9-yl)benzamide hydrochloride] | > 8.00 | > 9.00 |  |
| COC1(c2cccc(C(N)=O)c2)C2CCCC1CN([C@H](C)c1cnc[nH]1)C2 (stereo partly drawn) [Compound 20, 3-((1R,5S,9R)-3-((R)-1-(1H-imidazol-5-yl)ethyl)-9-methoxy-3-azabicyclo[3.3.1]nonan-9-yl)benzamide hydrochloride] | 7.12 to 8.00 | 8.30 to 9.00 |  |
| COC1(c2ccnc(C(N)=O)c2)C2CCCC1CN(Cc1cnn[nH]1)C2.Cl [Compound 108, 4-((1R,5S,9r)-3-((1H-1,2,3-triazol-5-yl)methyl)-9-methoxy-3-azabicyclo[3.3.1]nonan-9-yl)picolinamide hydrochloride] |  |  | pKi [3]: 8.30 to 9.00; <60 mmHg @ 10X CFA MEMD [4]: + (resulted in a maximum pCO2 value of less than 60 mmHg within 2 hours of administration); <60 mmHg @ 100X CFA MEMD [4]: + (resulted in a maximum pCO2 value of less than 60 mmHg within 2 hours of administration); minimal effective dose [5]: 0.3 mg/kg; pEC50 [6]: 7.12 to 8.00 |
| COC1(c2cccc(C(N)=O)c2)C2CCCC1CN(CC1CCOCC1)C2.Cl [Compound 122, 3-((1R,5S,9r)-9-methoxy-3-((tetrahydro-2H-pyran-4-yl)methyl)-3-azabicyclo[3.3.1]nonan-9-yl)benzamide hydrochloride] |  |  | pKi [3]: 8.30 to 9.00; <60 mmHg @ 10X CFA MEMD [4]: + (resulted in a maximum pCO2 value of less than 60 mmHg within 2 hours of administration); minimal effective dose [5]: 0.3 mg/kg; pEC50 [6]: 7.12 to 8.00 |
| COC1(c2ccnc(C(N)=O)c2)C2CCCC1CN(Cc1cn(C)cn1)C2.Cl [Compound 123, 4-((1R,5S,9r)-9-methoxy-3-((1-methyl-1H-imidazol-4-yl)methyl)-3-azabicyclo[3.3.1]nonan-9-yl)picolinamide hydrochloride] |  |  | pKi [3]: 8.30 to 9.00; <60 mmHg @ 10X CFA MEMD [4]: + (resulted in a maximum pCO2 value of less than 60 mmHg within 2 hours of administration); minimal effective dose [5]: 1 mg/kg; pEC50 [6]: 7.12 to 8.00 |
| COC1(c2ccnc(C(N)=O)c2)C2CCCC1CN(Cc1c[nH]c3ccccc13)C2.Cl [Compound 126, 4-((1R,5S,9r)-3-((1H-indol-3-yl)methyl)-9-methoxy-3-azabicyclo[3.3.1]nonan-9-yl)picolinamide hydrochloride] |  |  | pKi [3]: > 9.00; <60 mmHg @ 10X CFA MEMD [4]: − (resulted in a maximum pCO2 value of greater than 60 mmHg within 2 hours of administration); minimal effective dose [5]: 0.1 mg/kg; pEC50 [6]: > 8.00 |
| COC1(c2ccnc(C(N)=O)c2)C2CCCC1CN(CC1CCOCC1)C2.Cl [Compound 127, 4-((1R,5S,9r)-9-methoxy-3-((tetrahydro-2H-pyran-4-yl)methyl)-3-azabicyclo[3.3.1]nonan-9-yl)picolinamide hydrochloride] |  |  | pKi [3]: 8.30 to 9.00; <60 mmHg @ 10X CFA MEMD [4]: + (resulted in a maximum pCO2 value of less than 60 mmHg within 2 hours of administration); <60 mmHg @ 100X CFA MEMD [4]: + (resulted in a maximum pCO2 value of less than 60 mmHg within 2 hours of administration); minimal effective dose [5]: 0.1 mg/kg; pEC50 [6]: 7.12 to 8.00 |
| COC1(c2cccc(C(N)=O)c2)C2CCCC1CN(C1CC3(COC3)C1)C2.O=C(O)CC(O)C(=O)O [Compound 133, 3-((1R,5S,9r)-9-methoxy-3-(2-oxaspiro[3.3]heptan-6-yl)-3-azabicyclo[3.3.1]nonan-9-yl)benzamide (S)-2-hydroxysuccinate] |  |  | pKi [3]: > 9.00; <60 mmHg @ 10X CFA MEMD [4]: + (resulted in a maximum pCO2 value of less than 60 mmHg within 2 hours of administration); minimal effective dose [5]: 1 mg/kg; pEC50 [6]: > 8.00 |
| COC1(c2cccc(C(N)=O)c2)C2CCCC1CN(Cc1cnc(C)[nH]1)C2 [Compound 149, 3-((1R,5S,9r)-9-methoxy-34(2-methyl-1H-imidazol-4-yl)methyl)-3-azabicyclo[3.3.1]nonan-9-yl)benzamide hydrochloride] | > 8.00 | > 9.00 |  |
| COC1(c2cccc(C(N)=O)c2)C2CCCC1CN(C1CN(c3ccccc3)C1)C2 [Compound 151, 3-((1R,5S,9r)-9-methoxy-3-(1-phenylazetidin-3-yl)-3-azabicyclo[3.3.1]nonan-9-yl)benzamide (S)-2-hydroxysuccinate] | > 8.00 | > 9.00 |  |
| COC1(c2cccc(C(N)=O)c2)C2CCCC1CN(C[C@H]1C[C@@H]3C[C@@H]3C1)C2 (stereo partly drawn) [Compound 152, 3-((1R,5s,9R)-3-((1R,3s,5S)-bicyclo[3.1.0]hexan-3-ylmethyl)-9-methoxy-3-azabicyclo[3.3.1]nonan-9-yl)benzamide hydrochloride] | > 8.00 | > 9.00 |  |
| COC1(c2cccc(C(N)=O)c2)C2CCCC1CN(CCCF)C2 [Compound 157, 3-((1R,5S,9r)-3-(3-fluoropropyl)-9-methoxy-3-azabicyclo[3.3.1]nonan-9-yl)benzamide hydrochloride] | 7.12 to 8.00 | > 9.00 |  |
| COC1(c2ccnc(C(N)=O)c2)C2CCCC1CN(C1CCC3(CC1)COC3)C2.O=C(O)CC(O)C(=O)O [Compound 158, 4-((1R,5S,9r)-9-methoxy-3-(2-oxaspiro[3.5]nonan-7-yl)-3-azabicyclo[3.3.1]nonan-9-yl)picolinamide (S)-2-hydroxysuccinate] |  |  | pKi [3]: 8.30 to 9.00; <60 mmHg @ 10X CFA MEMD [4]: + (resulted in a maximum pCO2 value of less than 60 mmHg within 2 hours of administration); <60 mmHg @ 100X CFA MEMD [4]: + (resulted in a maximum pCO2 value of less than 60 mmHg within 2 hours of administration); minimal effective dose [5]: 0.1 mg/kg; pEC50 [6]: 7.12 to 8.00 |
| CCOC1(c2cccc(C(N)=O)c2F)C2CCCC1CNC2 (stereo not drawn) [Compound 180] | < 7.12 | < 8.30 |  |
| NC(=O)c1cccc(C2(OCC(F)F)C3CCCC2CNC3)c1 (stereo not drawn) [Compound 182] | 7.12 to 8.00 | < 8.30 |  |
| CCOC1(c2ccc(F)c(C(N)=O)c2)C2CCCC1CNC2 (stereo not drawn) [Compound 183] | < 7.12 | < 8.30 |  |
| NC(=O)c1cccc(C2(OCCF)C3CCCC2CNC3)c1 (stereo not drawn) [Compound 187] | 7.12 to 8.00 | < 8.30 |  |
| CCOC1(c2cc(C(N)=O)ccc2Cl)C2CCCC1CNC2 (stereo not drawn) [Compound 188] | < 7.12 | < 8.30 |  |
| COC1(c2ccnc(C(N)=O)c2)C2CCCC1CN(C1CCC(F)(F)CC1)C2 (stereo not drawn) [Compound 195] | < 7.12 | 8.30 to 9.00 |  |
| COC1(c2cccc(C(N)=O)c2)C2CCCC1CN(C1CCC(F)(F)CC1)C2 (stereo not drawn) [Compound 196] | 7.12 to 8.00 | > 9.00 |  |
| COC1(c2ccnc(C(N)=O)c2)C2CCCC1CN([C@H]1C[C@@H]3[C@H](C1)C3(F)F)C2 (stereo partly drawn) [Compound 197] | > 8.00 | > 9.00 |  |
| COC1(c2ccnc(C(N)=O)c2)C2CCCC1CN(CC1(F)CCOCC1)C2 (stereo not drawn) [Compound 198] |  | < 8.30 |  |
| COC1(c2cccc(C(N)=O)c2)C2CCCC1CN(C1C[C@@H]3C[C@@H]3C1)C2 (stereo partly drawn) [Compound 199] | > 8.00 | > 9.00 |  |
| COC1(c2cccc(C(N)=O)c2)C2CCCC1CN([C@H]1C[C@@H]3[C@H](C1)C3(F)F)C2 (stereo partly drawn) [Compound 200] | > 8.00 | > 9.00 |  |
| COC1(c2ccnc(C(N)=O)c2)C2CCCC1CN(C1CC3CCC(C1)O3)C2 (stereo not drawn) [Compound 202] | < 7.12 | < 8.30 |  |
| COC1(c2cccc(C(N)=O)c2)C2CCCC1CN(C1CC3CCC(C1)O3)C2 (stereo not drawn) [Compound 203] | < 7.12 | 8.30 to 9.00 |  |
